{
  "source": "patent US20040029138A1",
  "about": "“Global electronic medicine response profile testing network” (priority 2003, published 2004)",
  "key": {"subjects with IBS": {"tested_on": "subjects with IBS", "experiment": "Double blind, placebo controlled clinical trials of alosetron for IBS, response stratified by 5HTT genotype", "format": "in vivo, human", "settings": "for Relief of IBS symptoms (subjects achieving relief): 12 weeks treatment", "description": "Genetic samples were obtained from 219 female human subjects enrolled in clinical trials of alosetron for the treatment of IBS. Using PCR technology as is known in the art, an insertion/deletion genetic marker was assayed in the 5-hydroxytryptamine-transporter gene (5HTT gene). The alleles were labeled as “del” (deletion) or “ins” (insertion) resulting in three possible genotypes (del/del; del/ins or ins/ins). The subjects' response to alosetron in the clinical trial setting was reviewed and correlated with genotype. In the double blind, placebo controlled clinical trials; subjects received 12 weeks of treatment with either alosetron or a placebo. A favorable response to alosetron was when a subject reported relief of IBS symptoms during six weeks of the twelve-week trial. The incidence of various other effects, including constipation, was also recorded. The response of subjects to treatment with alosetron in the clinical trial was stratified according to genotype."}, "[1]": {"tested_on": "patients with Irritable Bowel Syndrome (IBS)", "settings": "double blind, placebo controlled studies; cited from earlier work"}},
  "note": "Structures can show the parent of a compound that is named as a salt.",
  "data": [
    {"molecule": "Cc1[nH]cnc1CN1CCc2c(c3ccccc3n2C)C1=O", "note": "[alosetron, Alosetron hydrochloride]", "values": [
      {"measurement": "Relief of IBS symptoms (subjects achieving relief)", "setting": "subjects with IBS; del/del 5HTT genotype subjects (21/31), relief during six weeks of the twelve-week trial", "value": 68, "unit": "%"},
      {"measurement": "Constipation reported (incidence)", "setting": "subjects with IBS; del/del subjects (n=31), 4 subjects", "value": 13, "unit": "%"},
      {"measurement": "Relief of IBS symptoms (subjects achieving relief)", "setting": "subjects with IBS; del/ins 5HTT genotype subjects (21/33)", "value": 64, "unit": "%"},
      {"measurement": "Constipation reported (incidence)", "setting": "subjects with IBS; del/ins subjects (n=33), 10 subjects", "value": 30, "unit": "%"},
      {"measurement": "Effectiveness versus placebo in producing relief of IBS symptoms", "setting": "subjects with IBS; in each of the three 5HTT genotypes", "value": "more effective than placebo"},
      {"measurement": "Relief of IBS symptoms (subjects achieving relief)", "setting": "subjects with IBS; ins/ins 5HTT genotype subjects (22/38)", "value": 58, "unit": "%"},
      {"measurement": "Constipation reported (incidence)", "setting": "subjects with IBS; ins/ins subjects (n=38), 8 subjects", "value": 21, "unit": "%"},
      {"measurement": "Constipation reported (incidence)", "setting": "subjects with IBS; total group of subjects receiving alosetron (n=102)", "value": 21, "unit": "%"},
      {"measurement": "Effect on pain and bowel function in IBS patients", "setting": "[1]", "value": "reduce pain and improve bowel function"}
    ]}
  ]
}
